The supplement of paper PMC8967900

Experiments:
Experiment in all cases: selective drug sensitivity score (sDSS, relative to normal bone marrow) (sDSS (score)); higher = more potent and effective on the cell line relative to normal bone marrow cells
Conditions in all cases: 72 h
[1] = test system: CCRF-HSB2
[2] = test system: KASUMI-2
[3] = test system: COG-LL-355h
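Note: ALL cell lines in 384-well plates, five doses spanning 10,000-fold, each plate scaled between vehicle and 100 µmol/L benzalkonium chloride controls, sDSS an adapted area-under-curve metric.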

SMILES	selective drug sensitivity score [1]	selective drug sensitivity score [2]	selective drug sensitivity score [3]
CC(C)(C)NC(=O)[C@H]1CC[C@H]2[C@@H]3CC[C@H]4NC(=O)C=C[C@]4(C)[C@H]3CC[C@]12C [Finasteride] (top concentration 10000 nM)	-0.52	0.78	-0.52
O=c1[nH]c(=O)n([C@H]2C[C@H](O)[C@@H](CO)O2)cc1F [Floxuridine] (top concentration 10000 nM)	4.42	33.4	6.52
CNc1nc(Nc2cn(C(C)(C)C#N)nc2C)ncc1C(F)(F)F [GNE-0877] (top concentration 1000 nM)	0	1	0
CCCc1cc(C)[nH]c(=O)c1CNC(=O)c1cc(-c2ccnc(N3CCN(C)CC3)c2)cc2c1cnn2C(C)C [GSK343] (top concentration 1000 nM)	0	0	0
O=C(O)c1ccc(O)c2ncccc12 [IOX-1] (top concentration 100000 nM)	5.34	2.04	3.24
CC(=O)[C@]1(O)Cc2c(O)c3c(c(O)c2[C@@H](O[C@H]2C[C@H](N)[C@H](O)[C@H](C)O2)C1)C(=O)c1ccccc1C3=O [Idarubicin] (top concentration 1000 nM)	12.3	11.5	3.14
COc1cc2nccc(Oc3ccc(NC(=O)NC4CC4)c(Cl)c3)c2cc1C(N)=O [Lenvatinib] (top concentration 2500 nM)	5.06	-0.14	-0.24
N#Cc1ccc(C(c2ccc(C#N)cc2)n2cncn2)cc1 [Letrozole] (top concentration 10000 nM)	-0.04	0.76	-0.04
CCNCCS(=O)(=O)NC[C@@]1(c2ccccc2)SC(NC(=O)C(C)(C)C)=NN1C(=O)C(C)(C)C [Litronesib] (top concentration 1000 nM)	21.3	18.9	4.44
CC[C@H](C)C(=O)O[C@H]1C[C@@H](C)C=C2C=C[C@H](C)[C@H](CC[C@@H]3C[C@@H](O)CC(=O)O3)[C@H]21 [Lovastatin] (top concentration 10000 nM)	-0.1	-0.1	0
Cn1cc(-c2cnn3c(N)c(Br)c([C@@H]4CCCNC4)nc23)cn1 [MK-8776] (top concentration 2500 nM)	0.64	-1.46	0.54
Cc1cnc(-c2ccccc2C(C)C)nc1NCc1ccc(-n2ccnn2)cc1 [ML323] (top concentration 10000 nM)	1.84	0.14	2.04
O=C(CCNC(=O)c1ccc(OC(F)(F)F)cc1)N[C@@H]1CCCc2ccccc21 [ML390] (top concentration 50000 nM)	12.2	2.9	8.6
CN(C)C(=N)NC(=N)N [Metformin] (top concentration 100000 nM)	-0.02	-0.02	-0.02
C[C@H]1C[C@@H]2[C@H]([C@@H](O)C[C@@]3(C)[C@H]2CC[C@]3(O)C(=O)CO)[C@@]2(C)C=CC(=O)C=C12 [Methylprednisolone] (top concentration 10000 nM)	13.9	11.6	22.9
FC(F)(F)c1ccc(/C=C/c2nc(COc3ccc(CCCCn4ccnn4)cc3)co2)cc1 [Mubritinib] (top concentration 1000 nM)	9.36	11.6	2.76
COc1cc2c(cc1OC(C)C)[C@H](c1ccc(Cl)cc1)N(c1ccc(N(C)C[C@H]3CC[C@H](N4CCN(C)C(=O)C4)CC3)cc1)C(=O)C2 [NVP-CGM097] (top concentration 25000 nM)	8.76	8.16	2.86
CCOc1cc2ncc(C#N)c(Nc3ccc(OCc4ccccn4)c(Cl)c3)c2cc1NC(=O)/C=C/CN(C)C [Neratinib] (top concentration 1000 nM)	1.78	-0.72	5.68
COc1ncc(-c2ccc3nccc(-c4ccnnc4)c3c2)cc1NS(=O)(=O)c1ccc(F)cc1F [Omipalisib] (top concentration 1000 nM)	8.4	12.9	19.5
CN1CCN(c2cc(C(=O)Nc3ccc4c(c3)-c3c(c(C(N)=O)nn3-c3ccc(F)cc3)CC4)c(Cl)cn2)CC1 [PHA-408] (top concentration 10000 nM)	1.88	4.48	3.38
OC[C@H]1O[C@@H](n2cnc3c2N=CNC[C@H]3O)C[C@@H]1O [Pentostatin] (top concentration 10000 nM)	-0.44	-0.44	1.26
CC(C)N(C[C@H]1O[C@@H](n2cnc3c(N)ncnc32)[C@H](O)[C@@H]1O)[C@H]1C[C@@H](CCc2nc3cc(C(C)(C)C)ccc3[nH]2)C1 [Pinometostat] (top concentration 1000 nM)	0	0	0

SMILES	selective drug sensitivity score [1]	selective drug sensitivity score [2]	selective drug sensitivity score [3]
Cc1ccc(=O)n(-c2ccccc2)c1 [Pirfenidone] (top concentration 10000 nM)	0	0	0
NCCNc1ccc(NCCN)c2c1C(=O)c1ccncc1C2=O [Pixantrone] (top concentration 10000 nM)	-2.16	-2.76	0.34
c1cc(CN2CCCNCCNCCCNCC2)ccc1CN1CCCNCCNCCCNCC1 [Plerixafor] (top concentration 10000 nM)	0	0	0
O=C(c1ccc(OCCN2CCCCC2)cc1)c1c(-c2ccc(O)cc2)sc2cc(O)ccc12 [Raloxifene] (top concentration 10000 nM)	2.42	-2.28	3.92
CN(C)C(=O)c1cc2cnc(Nc3ccc(N4CCNCC4)cn3)nc2n1C1CCCC1 [Ribociclib] (top concentration 10000 nM)	1.48	-0.92	0.18
CN1CCN(CCOc2cc(OC3CCOCC3)c3c(Nc4c(Cl)ccc5c4OCO5)ncnc3c2)CC1 [Saracatinib] (top concentration 10000 nM)	28.9	1.78	0.48
C=CC(=O)Nc1cccc(Nc2nc(Nc3ccc(OCCOC)cc3)ncc2F)c1 [Spebrutinib] (top concentration 1000 nM)	0.04	-0.16	0.64
C[C@@H]1CN(Cc2ccc(F)cc2)[C@@H](C)CN1C(=O)c1cc2c(C(=O)C(=O)N(C)C)cn(C)c2cc1Cl [Talmapimod] (top concentration 10000 nM)	0	0	0
C[C@@H](C(=O)O)c1ccc(-c2ccccc2)c(F)c1 [Tarenflurbil] (top concentration 10000 nM)	-0.16	-0.16	-0.16
CNC(=O)c1cc(COc2nnc(Nc3ccc(Cl)cc3)c3ccoc23)ccn1 [Telatinib] (top concentration 10000 nM)	0	0	0
O=c1sn(-c2cccc3ccccc23)c(=O)n1Cc1ccccc1 [Tideglusib] (top concentration 3000 nM)	-0.3	-0.3	-0.3
COc1cc2nccc(Oc3ccc(NC(=O)Nc4cc(C)on4)c(Cl)c3)c2cc1OC [Tivozanib] (top concentration 10000 nM)	17.9	4.96	-1.04
Cc1cc(Nc2cc(N3CCN(C)CC3)nc(Sc3ccc(NC(=O)C4CC4)cc3)n2)n[nH]1 [Tozasertib] (top concentration 10000 nM)	21.9	12.3	2.96
CC1=C(/C=C/C(C)=C/C=C/C(C)=C/C(=O)O)C(C)(C)CCC1 [Tretinoin] (top concentration 10000 nM)	-2.4	-2.4	-1
COC(=O)c1ccc2c(c1)[nH]c1ncnc(NCCCN3CCCCC3)c12 [UM729] (top concentration 10000 nM)	2.84	-0.06	1.44
COc1cc2c(NC3CCN(C(C)C)CC3)nc(N3CCC(F)(F)CC3)nc2cc1OCCCN1CCCC1 [UNC0642] (top concentration 10000 nM)	-0.54	-0.84	4.36
O=C(c1ccc(C(=O)N2CCC(N3CCCC3)CC2)c(Nc2ccccc2)c1)N1CCC(N2CCCC2)CC1 [UNC1215] (top concentration 10000 nM)	0	0	0
CCCC(CCC)C(=O)O [Valproic_acid] (top concentration 1000000 nM)	0	0	0
Clc1ccc(Nc2nnc(Cc3ccncc3)c3ccccc23)cc1 [Vatalanib] (top concentration 10000 nM)	1.1	0	0
CCCS(=O)(=O)Nc1ccc(F)c(C(=O)c2c[nH]c3ncc(-c4ccc(Cl)cc4)cc23)c1F [Vemurafenib] (top concentration 10000 nM)	4.06	-1.14	0.86
CC[C@]1(O)C[C@H]2CN(CCc3c([nH]c4ccccc34)[C@@](C(=O)OC)(c3cc4c(cc3OC)N(C)[C@H]3[C@@](O)(C(=O)OC)[C@H](OC(C)=O)[C@]5(CC)C=CCN6CC[C@]43[C@@H]65)C2)C1 [Vinblastine] (top concentration 1000 nM)	-3.4	6.7	-0.6
